Data on four compounds can be found in ChEMBL document CHEMBL4354851, “Aggregation-Induced Emission Photosensitizers: From Molecular Design to Photodynamic Therapy” (2020).

The nature of assay [1]: Induction of […] generation assessed as bleaching rate of ABDA under white light irradiation relative to control. The format is functional.
Another assay relates to HeLa. The assay is described as follows: Photodynamic activity in human HeLa cells assessed as light dose required to kill 50% of cells by fluorescein diacetate and propidium iodide dye based fluorescence assay. The format is functional.

As to `C=Cc1c(C)c2cc3nc(c(CC(=O)O)c4[nH]c(cc5nc(cc1[nH]2)C(C)=C5CC)c(C)c4C(=O)O)C(CCC(=O)O)C3C` (centres undefined), the Activity in assay [1] stood at 16.7%. Regarding `CCC[n+]1cc2ccc(-c3ccc(N(c4ccccc4)c4ccccc4)cc3)cc2c(-c2ccccc2)c1-c1ccccc1.F[B-](F)(F)F`, the Activity in the assay with HeLa is 3.7 kJ/cm2.

Take `O=C(O)c1c(Cl)c(Cl)c(Cl)c(Cl)c1-c1c2cc(I)c(=O)c(I)c-2oc2c(I)c(O)c(I)cc12`: the Activity in assay [1] was 55.6%. Same read-out and setting: with `Cc1ccc(N(c2ccc(C)cc2)c2ccc(-c3ccc(/C=C/c4cc[n+](C)cc4)s3)cc2)cc1` the figure was 90.7%.
